How the values were obtained:
[1] = Disproportionation study (stirring in water, XRPD, pH of liquor); assay type: physicochemical; settings: slurry in water at 25° C., 24 h
Description: After 24 h total, a white slurry was observed and was isolated by centrifugation. The solids were analyzed by XRPD. The pH of the filtered liquor was measured at 5.63. […] After 24 h total, a white slurry was observed and was isolated by centrifugation. The solids were analyzed by XRPD. The pH of the filtered liquor was measured (pH=5.09).

[2] = Comparative studies: 7-day stability; assay type: physicochemical; settings: 7 Day Stability
Description: Osanetant p-toluenesulfonic acid Form 1, osanetant benzene sulfonic acid Form 3, osanetant naphthalene-2-sulfonic acid Form 3, and osanetant phosphoric acid Form 7 were compared. Osanetant phosphoric acid Form 7 was obtained when preparation of osanetant phosphoric acid Form 4 was repeated and found to be not reproducible, and Form 7 was determined to be a mixture of hydrates).
Thus, osanetant benzene sulfonic acid salt Form 1 and osanetant p-toluene sulfonic acid salt Form 1 were identified as advantageous salts.

[3] = Thermodynamic solubility in water and pH buffers; settings: 24 h Solubility at 37° C.
[4] = Long term stability: base (2M NaOH) at ambient temperature; assay type: physicochemical; settings: for Control Purity: 2M NaOH ambient study; for T = 1 month Purity / T = 1 day Purity / T = 2 day Purity / T = 4 day Purity / T = 7 day Purity / T = 14 day Purity: 2M NaOH, ambient, dark; for T = 2 day Purity: 2 days; for T = 4 day Purity: 4 days; for T = 7 day Purity: 7 days; for T = 14 day Purity: 14 days
Description: (§1) Osanetant p-toluenesulfonic acid Form 1 and osanetant benzenesulfonic acid Form 1 were tested for long-term stability across a number of different conditions, as detailed below.
(§2) Base at Ambient Temperature—Osanetant p-toluenesulfonic acid Form 1 and osanetant benzenesulfonic acid Form 1 were prepared at an osanetant content 10 times the normal working concentration then added to HPLC vials containing 2M NaOH and stored in the dark at ambient laboratory conditions. Samples were diluted to 2 mg/mL for analysis and were taken after T=1, 2, 4, 7, and 14 days storage. […] The purity of the resulting material is described in Table 44: […]

[5] = Long term stability: base (2M NaOH) at 60° C.; assay type: physicochemical; settings: for Control Purity: 2M NaOH 60° C. study; for T = 4 day Purity: 4 days; for T = 7 day Purity: 7 days; for T = 14 day Purity: 14 days
Description: as §1
as §2, with “60° C.—Osanetant” for “Ambient Temperature—Osanetant”, “a darkened oven” for “the dark”, “60° C.” for “ambient laboratory conditions.”, “45:” for “44:”

[6] = Long term stability: acid stability (2M HCl) at ambient temperature; assay type: physicochemical; settings: for Control Purity: 2M HCl ambient study; for T = 1 month Purity / T = 1 day Purity / T = 2 day Purity / T = 4 day Purity / T = 7 day Purity / T = 14 day Purity: 2M HCl, ambient, dark; for T = 2 day Purity: 2 days; for T = 4 day Purity: 4 days; for T = 7 day Purity: 7 days; for T = 14 day Purity: 14 days
Description: as §1
as §2, with “Acid Stability” for “Base”, “Temperature-Osanetant” for “Temperature—Osanetant”, “HCl” for “NaOH”, “42:” for “44:”

[7] = Long term stability: thermal stability of solids at 60° C.; assay type: physicochemical; settings: for T = 1 month Purity / T = 1 day Purity / T = 2 day Purity / T = 4 day Purity / T = 7 day Purity / T = 14 day Purity: solid at 60° C., dark; for T = 2 day Purity: 2 days; for T = 4 day Purity: 4 days; for T = 7 day Purity: 7 days; for T = 14 day Purity: 14 days; for Control Purity: solid, Purity = 100-total other substances
Description: as §1
Thermal stability of solids at 60° C.—Osanetant p-toluenesulfonic acid Form 1 and osanetant benzenesulfonic acid Form 1 were stored in a darkened oven at 60° C. in glass vials. Samples were taken after T=1, 2, 4, 7, and 14 days storage. […] The purity of the resulting material is described in Table 41: […]

[8] = Long term stability: oxidation (6% H2O2) at ambient temperature; assay type: physicochemical; settings: for T = 1 month Purity / T = 1 day Purity / T = 2 day Purity / T = 4 day Purity / T = 7 day Purity / T = 14 day Purity: 6% H2O2, ambient, dark; for T = 2 day Purity: 2 days; for T = 4 day Purity: 4 days; for T = 7 day Purity: 7 days; for T = 14 day Purity: 14 days; for Control Purity: 6% H2O2 ambient study
Description: as §1
as §2, with “Oxidation” for “Base”, “Temperature-Osanetant” for “Temperature—Osanetant”, “6% H2O2” for “2M NaOH”, “46:” for “44:”

[9] = Long term stability: oxidation (6% H2O2) at 60° C.; assay type: physicochemical; settings: for Control Purity: 6% H2O2 60° C. study; for T = 1 month Purity / T = 1 day Purity / T = 2 day Purity / T = 4 day Purity / T = 7 day Purity / T = 14 day Purity: 6% H2O2, 60° C., dark; for T = 2 day Purity: 2 days; for T = 4 day Purity: 4 days; for T = 7 day Purity: 7 days; for T = 14 day Purity: 14 days
Description: as §1
as §2, with “Oxidation” for “Base”, “60° C.—Osanetant” for “Ambient Temperature—Osanetant”, “6% H2O2” for “2M NaOH”, “a darkened oven” for “the dark”, “60° C.” for “ambient laboratory conditions.”, “47:” for “44:”

[10] = Long term stability: acid stability (2M HCl) at 60° C.; assay type: physicochemical; settings: for Control Purity: 2M HCl 60° C. study; for T = 1 day Purity / T = 2 day Purity / T = 4 day Purity: 2M HCl, 60° C., dark; for T = 2 day Purity: 2 days; for T = 4 day Purity: 4 days
Description: as §1
Acid Stability at 60° C.—Osanetant p-toluenesulfonic acid Form 1 and osanetant benzenesulfonic acid Form 1 were prepared at an osanetant content 10 times the normal working concentration then added to HPLC vials containing 2M HCl and stored in a darkened oven at 60° C. Samples were diluted to 2 mg/mL for analysis and were taken after T=1, 2, and 4 days storage.

SMILES: CC(=O)N(C)C1(c2ccccc2)CCN(CCC[C@]2(c3ccc(Cl)c(Cl)c3)CCCN(C(=O)c3ccccc3)C2)CC1.O=S(=O)(O)c1ccccc1 [Besylate Form 3]
- Liquor pH [1]: 5.09
- HPLC Impurity Content ([2]; 40° C./75% RH): 0.06 % w/w
- HPLC Impurity Content ([2]; 80° C.): 0.24 % w/w
- HPLC Impurity Content ([2]; Ambient Light): 0.05 % w/w
- Concentration ([3]; pH 1.2): 216.3 µg/mL
- Concentration ([3]; pH 4.5): 232.4 µg/mL
- Concentration ([3]; pH 6.8): 363.7 µg/mL

SMILES: CC(=O)N(C)C1(c2ccccc2)CCN(CCCC2(c3ccc(Cl)c(Cl)c3)CCCN(C(=O)c3ccccc3)C2)CC1.O=S(=O)(O)c1ccccc1 (centres unmarked) [benzenesulfonic acid Form 1]
- Control Purity [4]: 99.9
- T = 1 month Purity [4]: 99.9
- T = 1 day Purity [4]: 99.9
- T = 2 day Purity [4]: 99.9
- T = 4 day Purity [4]: 99.9
- T = 7 day Purity [4]: 99.9
- T = 14 day Purity [4]: 100.0
- Control Purity [5]: 99.9
- T = 1 month Purity ([5]; 2M NaOH, 60° C., dark): 95.8
- T = 1 day Purity ([5]; 2M NaOH, 60° C., dark): 99.7
- T = 4 day Purity ([5]; 2M NaOH, 60° C., dark): 98.5
- T = 7 day Purity ([5]; 2M NaOH, 60° C., dark): 97.3
- T = 14 day Purity ([5]; 2M NaOH, 60° C., dark): 95.5
- Control Purity [6]: 99.9
- T = 1 month Purity [6]: 98.5
- T = 1 day Purity [6]: 100.0
- T = 2 day Purity [6]: 100.0
- T = 4 day Purity [6]: 99.9
- T = 7 day Purity [6]: 99.5
- T = 14 day Purity [6]: 99.3
- T = 1 month Purity [7]: 100.0
- T = 1 day Purity [7]: 99.9
- T = 2 day Purity [7]: 99.9
- T = 4 day Purity [7]: 99.9
- T = 7 day Purity [7]: 99.9
- T = 14 day Purity [7]: 100.0
- Control Purity [7]: 99.9
- T = 1 month Purity [8]: 99.5
- T = 1 day Purity [8]: 99.9
- T = 2 day Purity [8]: 99.9
- T = 4 day Purity [8]: 99.9
- T = 7 day Purity [8]: 99.8
- T = 14 day Purity [8]: 99.8
- Control Purity [8]: 99.9
- Control Purity [9]: 99.9
- T = 1 month Purity [9]: 77.8
- T = 1 day Purity [9]: 91.9
- T = 2 day Purity [9]: 97.2
- T = 4 day Purity [9]: 94.8
- T = 7 day Purity [9]: 93.1
- T = 14 day Purity [9]: 76.6
- Control Purity [10]: 99.9
- T = 1 day Purity [10]: 94.7
- T = 2 day Purity [10]: 89.2
- T = 4 day Purity [10]: 81.0

SMILES: CC(=O)N(C)C1(c2ccccc2)CCN(CCC[C@]2(c3ccc(Cl)c(Cl)c3)CCCN(C(=O)c3ccccc3)C2)CC1.Cc1ccc(S(=O)(=O)O)cc1 [p-toluenesulfonic acid Form 1]
- Control Purity [4]: 99.8
- T = 1 month Purity [4]: 99.7
- T = 1 day Purity [4]: 99.8
- T = 2 day Purity [4]: 99.8
- T = 4 day Purity [4]: 99.8
- T = 7 day Purity [4]: 99.8
- T = 14 day Purity [4]: 99.8
- Control Purity [5]: 99.8
- T = 1 month Purity ([5]; 2M NaOH, 60° C., dark): 94.0
- T = 1 day Purity ([5]; 2M NaOH, 60° C., dark): 99.6
- T = 2 day Purity ([5]; 2M NaOH, 60° C., dark, 2 days): 99.2
- T = 4 day Purity ([5]; 2M NaOH, 60° C., dark): 98.4
- T = 7 day Purity ([5]; 2M NaOH, 60° C., dark): 97.1
- T = 14 day Purity ([5]; 2M NaOH, 60° C., dark): 94.7
- Control Purity [6]: 99.8
- T = 1 month Purity [6]: 98.0
- T = 1 day Purity [6]: 99.8
- T = 2 day Purity [6]: 99.8
- T = 4 day Purity [6]: 99.9
- T = 7 day Purity [6]: 99.6
- T = 14 day Purity [6]: 99.0
- T = 1 month Purity [7]: 99.5
- T = 1 day Purity [7]: 99.7
- T = 2 day Purity [7]: 99.7
- T = 4 day Purity [7]: 99.7
- T = 7 day Purity [7]: 99.6
- T = 14 day Purity [7]: 99.7
- Control Purity [7]: 99.8
- T = 1 month Purity [8]: 99.7
- T = 1 day Purity [8]: 99.8
- T = 2 day Purity [8]: 99.8
- T = 4 day Purity [8]: 99.8
- T = 7 day Purity [8]: 99.8
- T = 14 day Purity [8]: 99.8
- Control Purity [8]: 99.8
- Control Purity [9]: 99.8
- T = 1 month Purity [9]: 65.5
- T = 1 day Purity [9]: 99.3
- T = 2 day Purity [9]: 96.6
- T = 4 day Purity [9]: 97.4
- T = 7 day Purity [9]: 95.2
- T = 14 day Purity [9]: 92.4
- Control Purity [10]: 99.8
- T = 1 day Purity [10]: 94.8
- T = 2 day Purity [10]: 89.0
- T = 4 day Purity [10]: 80.5
